Broadly, the EC50 is the midpoint of the concentration-response curve.

The test has as its system HCV 1b-Con1 replicon. In words: HCV 1b-Con1 replicon assay in the presence of 5% FBS. The test is classed as cell-based. To be noted: Hepatitis C virus. (In general: In antiviral work, replicon cells carry a viral genome segment that copies itself.)
For the compound `COC(=O)N[C@H](C(=O)N1[C@H](c2nc3cc([C@H]4CC[C@H](c5cc6nc([C@@H]7C[C@@H]8CCC[C@@H]8N7C(=O)[C@@H](NC(=O)OC)C(C)C)[nH]c6cc5F)N4c4cc(F)c(N5CCCCC5)c(F)c4)c(F)cc3[nH]2)C[C@@H]2CCC[C@@H]21)C(C)C` [Example 3.37, methyl {(2S)-1-[(2S,3aS,6aS)-2-{5-[(2R,5R)-1-[3,5-difluoro-4-(piperidin-1-yl)phenyl]-5-{6-fluoro-2-[(2S,3aS,6aS)-1-{(2S)-2-[(methoxycarbonyl)amino]-3-methylbutanoyl}octahydrocyclopenta[b]pyrrol-2-yl]-1H-benzimidazol-5-yl}pyrrolidin-2-yl]-6-fluoro-1H-benzimidazol-2-yl}hexahydrocyclopenta[b]pyrrol-1(2H)-yl]-3-methyl-1-oxobutan-2-yl}carbamate], the EC50 was less than 100 pM.

Regarding `COC(=O)N[C@H](C(=O)N1CCC[C@H]1c1nc2cc([C@@H]3CC[C@@H](c4cc5nc([C@@H]6CCCN6C(=O)[C@@H](NC(=O)OC)[C@@H](C)OC)[nH]c5cc4F)N3c3cc(F)c(N4CCN(c5c(F)cccc5F)CC4)c(F)c3)c(F)cc2[nH]1)[C@@H](C)OC` [Example 3.49, methyl {(2S,3R)-1-[(2S)-2-{5-[(2S,5S)-1-{4-[4-(2,6-difluorophenyl)piperazin-1-yl]-3,5-difluorophenyl}-5-(6-fluoro-2-{(2S)-1-[N-(methoxycarbonyl)-O-methyl-L-threonyl]pyrrolidin-2-yl}-1H-benzimidazol-5-yl)pyrrolidin-2-yl]-6-fluoro-1H-benzimidazol-2-yl}pyrrolidin-1-yl]-3-methoxy-1-oxobutan-2-yl}carbamate], the EC50 was less than 100 pM.

With `COC(=O)N[C@H](C(=O)N1[C@H](c2nc3cc([C@H]4CC[C@H](c5ccc6[nH]c([C@@H]7C[C@@H]8CCC[C@@H]8N7C(=O)[C@@H](NC(=O)OC)[C@@H](C)OC)nc6c5)N4c4cc(F)c(N5CCCCC5)c(F)c4)ccc3[nH]2)C[C@@H]2CCC[C@@H]21)C(C)C` [Example 10.2, methyl {(2S,3R)-1-[(2S,3aS,6aS)-2-{5-[(2R,5R)-1-[3,5-difluoro-4-(piperidin-1-yl)phenyl]-5-{2-[(2S,3aS,6aS)-1-{(2S)-2-[(methoxycarbonyl)amino]-3-methylbutanoyl}octahydrocyclopenta[b]pyrrol-2-yl]-1H-benzimidazol-5-yl}pyrrolidin-2-yl]-1H-benzimidazol-2-yl}hexahydrocyclopenta[b]pyrrol-1(2H)-yl]-3-methoxy-1-oxobutan-2-yl}carbamate], the EC50 was less than 100 pM.

Regarding `COC(=O)N[C@H](C(=O)N1CCC[C@H]1c1nc2cc([C@H]3CC[C@H](c4cc5nc([C@@H]6CCCN6C(=O)[C@@H](NC(=O)OC)C(C)C)[nH]c5cc4F)N3c3cc(F)c(N4CCC(c5ccc(F)cc5F)CC4)c(F)c3)c(F)cc2[nH]1)C(C)C` [Example 4.56, methyl {(2S)-1-[(2S)-2-{5-[(2R,5R)-1-{4-[4-(2,4-difluorophenyl)piperidin-1-yl]-3,5-difluorophenyl}-5-{6-fluoro-2-[(2S)-1-{(2S)-2-[(methoxycarbonyl)amino]-3-methylbutanoyl}pyrrolidin-2-yl]-1H-benzimidazol-5-yl}pyrrolidin-2-yl]-6-fluoro-1H-benzimidazol-2-yl}pyrrolidin-1-yl]-3-methyl-1-oxobutan-2-yl}carbamate], the EC50 is less than 100 pM.

As for `COC(=O)N[C@H](C(=O)N1CCC[C@H]1c1ncc(-c2cccc(C3(c4cccc(-c5cnc([C@@H]6CCCN6C(=O)[C@@H](NC(=O)OC)C(C)C)[nH]5)c4)CN(c4ccccc4)C3)c2)[nH]1)C(C)C` [Example 12.2, methyl {(2S)-1-[(2S)-2-(5-{3-[3-(3-{2-[(2S)-1-{(2S)-2-[(methoxycarbonyl)amino]-3-methylbutanoyl}pyrrolidin-2-yl]-1H-imidazol-5-yl}phenyl)-1-phenylazetidin-3-yl]phenyl}-1H-imidazol-2-yl)pyrrolidin-1-yl]-3-methyl-1-oxobutan-2-yl}carbamate], the EC50 lay in the range of 1000 to 10000 pM.

Regarding `COC(=O)N[C@H](C(=O)N1CCC[C@H]1c1nc2cc([C@H]3CC[C@H](c4cc5nc([C@@H]6CCCN6C(=O)[C@@H](NC(=O)OC)C(C)C)[nH]c5cc4F)N3c3cc(F)c(N4CCC(c5ccc(C)s5)CC4)c(F)c3)c(F)cc2[nH]1)C(C)C` [Example 4.61, methyl {(2S)-1-[(2S)-2-{5-[(2R,5R)-1-{3,5-difluoro-4-[4-(5-methyl-2-thienyl)piperidin-1-yl]phenyl}-5-{6-fluoro-2-[(2S)-1-{(2S)-2-[(methoxycarbonyl)amino]-3-methylbutanoyl}pyrrolidin-2-yl]-1H-benzimidazol-5-yl}pyrrolidin-2-yl]-6-fluoro-1H-benzimidazol-2-yl}pyrrolidin-1-yl]-3-methyl-1-oxobutan-2-yl}carbamate], the EC50 is less than 100 pM.

Consider `COC(=O)N[C@H](C(=O)N1CCC[C@H]1c1nc2cc([C@H]3CC[C@H](c4cc5nc([C@@H]6CCCN6C(=O)[C@@H](NC(=O)OC)[C@@H](C)OC)[nH]c5cc4F)N3c3cc(F)c(N4CCC(c5ccccc5)CC4)c(F)c3)c(F)cc2[nH]1)[C@@H](C)OC` [Example 4.38, methyl {(2S,3R)-1-[(2S)-2-{5-[(2R,5R)-1-[3,5-difluoro-4-(4-phenylpiperidin-1-yl)phenyl]-5-(6-fluoro-2-{(2S)-1-[N-(methoxycarbonyl)-O-methyl-L-threonyl]pyrrolidin-2-yl}-1H-benzimidazol-5-yl)pyrrolidin-2-yl]-6-fluoro-1H-benzimidazol-2-yl}pyrrolidin-1-yl]-3-methoxy-1-oxobutan-2-yl}carbamate], for which the EC50 was less than 100 pM.

For the compound `COC(=O)N[C@H](C(=O)N1[C@H](c2nc3cc([C@H]4CC[C@H](c5cc6nc([C@@H]7C[C@@H]8CCC[C@@H]8N7C(=O)[C@@H](NC(=O)OC)C7CCCC7)[nH]c6cc5F)N4c4cc(F)c(N5CCCCC5)c(F)c4)c(F)cc3[nH]2)C[C@@H]2CCC[C@@H]21)C1CCCC1` [Example 3.40, dimethyl ({(2R,5R)-1-[3,5-difluoro-4-(piperidin-1-yl)phenyl]pyrrolidine-2,5-diyl}bis{(6-fluoro-1H-benzimidazole-5,2-diyl)(2S,3aS,6aS)hexahydrocyclopenta[b]pyrrole-2,1(2H)-diyl[(1S)-1-cyclopentyl-2-oxoethane-2,1-diyl]})biscarbamate], the EC50 is less than 100 pM.

`COC(=O)N[C@H](C(=O)N1CCC[C@H]1c1nc2ccc([C@H]3CC[C@H](c4ccc5nc([C@@H]6CCCN6C(=O)[C@@H](NC(=O)OC)C(C)C)[nH]c5c4)N3c3cc(F)c(N4CCC(Cc5ccccc5)CC4)c(F)c3)cc2[nH]1)C(C)C` [Example 4.47, methyl {(2S)-1-[(2S)-2-{6-[(2R,5R)-1-[4-(4-benzylpiperidin-1-yl)-3,5-difluorophenyl]-5-{2-[(2S)-1-{(2S)-2-[(methoxycarbonyl)amino]-3-methylbutanoyl}pyrrolidin-2-yl]-1H-benzimidazol-6-yl}pyrrolidin-2-yl]-1H-benzimidazol-2-yl}pyrrolidin-1-yl]-3-methyl-1-oxobutan-2-yl}carbamate]: the EC50 was less than 100 pM.

For `COC(=O)N[C@H](C(=O)N1CCC[C@H]1c1nc2cc([C@H]3CC[C@H](c4cc5nc([C@@H]6CCCN6C(=O)[C@@H](NC(=O)OC)C6CCOCC6)[nH]c5cc4F)N3c3cc(F)c(N4CCCCC4)c(F)c3)c(F)cc2[nH]1)C1CCOCC1` [Example 3.35, dimethyl ({(2R,5R)-1-[3,5-difluoro-4-(piperidin-1-yl)phenyl]pyrrolidine-2,5-diyl}bis {(6-fluoro-1H-benzimidazole-5,2-diyl)(2S)pyrrolidine-2,1-diyl[(1S)-2-oxo-1-(tetrahydro-2H-pyran-4-yl)ethane-2,1-diyl]})biscarbamate], the EC50 was less than 100 pM.

Turning to `COC(=O)N[C@H](C(=O)N1CCC[C@H]1c1nc2cc([C@H]3CC[C@H](c4ccc5[nH]c([C@@H]6CCCN6C(=O)[C@@H](NC(=O)OC)C(C)C)nc5c4)N3c3ccc(Oc4ccccc4)cc3)ccc2[nH]1)C(C)C` [Example 1.1, methyl {(2S)-1-[(2S)-2-{5-[(2R,5R)-5-{2-[(2S)-1-{(2S)-2-[(methoxycarbonyl)amino]-3-methylbutanoyl}pyrrolidin-2-yl]-1H-benzimidazol-5-yl}-1-(4-phenoxyphenyl)pyrrolidin-2-yl]-1H-benzimidazol-2-yl}pyrrolidin-1-yl]-3-methyl-1-oxobutan-2-yl}carbamate], the EC50 was less than 100 pM.

As to `COC(=O)N[C@H](C(=O)N1CCC[C@H]1c1nc2cc([C@H]3CC[C@H](c4ccc5[nH]c([C@@H]6CCCN6C(=O)[C@@H](NC(=O)OC)C(C)C)nc5c4)N3c3cc(F)c(N4C[C@H]5CCCC[C@H]5C4)c(F)c3)ccc2[nH]1)C(C)C` [Example 4.3, methyl {(2S)-1-[(2S)-2-{5-[(2R,5R)-1-{3,5-difluoro-4-[(3aR,7aS)-octahydro-2H-isoindol-2-yl]phenyl}-5-{2-[(2S)-1-{(2S)-2-[(methoxycarbonyl)amino]-3-methylbutanoyl}pyrrolidin-2-yl]-1H-benzimidazol-5-yl}pyrrolidin-2-yl]-1H-benzimidazol-2-yl}pyrrolidin-1-yl]-3-methyl-1-oxobutan-2-yl}carbamate], the EC50 was less than 100 pM.

On to `CCOc1ccc(N2[C@@H](c3ccc4nc([C@@H]5CCCN5C(=O)[C@@H](NC(=O)OC)C(C)C)[nH]c4c3)CC[C@@H]2c2ccc3nc([C@@H]4CCCN4C(=O)[C@@H](NC(=O)OC)C(C)C)[nH]c3c2)cc1` [Example 4.10, methyl {(2S)-1-[(2S)-2-{6-[(2R,5R)-1-(4-ethoxyphenyl)-5-{2-[(2S)-1-{(2S)-2-[(methoxycarbonyl)amino]-3-methylbutanoyl}pyrrolidin-2-yl]-1H-benzimidazol-6-yl}pyrrolidin-2-yl]-1H-benzimidazol-2-yl}pyrrolidin-1-yl]-3-methyl-1-oxobutan-2-yl}carbamate], for which the half-maximal effective concentration (EC50) is less than 100 pM.

Turning to `COC(=O)N[C@H](C(=O)N1C2CCC(C2)[C@H]1c1nc2cc([C@H]3CC[C@H](c4ccc5[nH]c([C@@H]6C7CCC(C7)N6C(=O)[C@@H](NC(=O)OC)C(C)C)nc5c4)N3c3cc(F)c(N4CCCCC4)c(F)c3)ccc2[nH]1)C(C)C` [Example 3.19, methyl {(2S)-1-[(3S)-3-{5-[(2R,5R)-1-[3,5-difluoro-4-(piperidin-1-yl)phenyl]-5-{2-[(3S)-2-{(2S)-2-[(methoxycarbonyl)amino]-3-methylbutanoyl}-2-azabicyclo[2.2.1]hept-3-yl]-1H-benzimidazol-5-yl}pyrrolidin-2-yl]-1H-benzimidazol-2-yl}-2-azabicyclo[2.2.1]hept-2-yl]-3-methyl-1-oxobutan-2-yl}carbamate], the EC50 is less than 100 pM.

(Values after patent US20120220562A1, “Anti-Viral Compounds” (ABBOTT LABAORATORIES, priority 2011, published 2012).)
